Here are results for seven compounds from US10335409B2 (priority 2012, dated 2019).

What all share (format): cell-based, hepatitis C virus
In assay [1] the test system is genotype 1b NS3/4a protease inhibitor resistant variant D168A transient HCV replicon in Huh-7-derived cells. Briefly: Transient-transfected HCV replicon EC50, genotype 1b D168A. Particulars: Hepatitis C virus, 72 h, read-out: EC50 1B D168A, transient-transfected replicon genotype 1b D168A resistant variant, 72 h. On the technique in general: Replicon systems follow genome replication, usually without infectious particles.

The subject of assay [2] is genotype 3a (S52) stable HCV replicon in Huh-7-derived cells. Put plainly: Stable subgenomic HCV replicon EC50, genotype 3a (Renilla luciferase). As to conditions: Hepatitis C virus, 72 h, read-out: EC50 3A RLUC.
The subject of assay [3] is genotype 1a (H77) wild type transient HCV replicon in Huh-7-derived cells. Put plainly: Transient-transfected HCV replicon EC50, genotype 1a wild type. As to conditions: Hepatitis C virus, 72 h, read-out: EC50 1A WT.
In assay [4] the test system is genotype 3a (S52) wild type transient HCV replicon in Huh-7-derived cells. Put plainly: Transient-transfected HCV replicon EC50, genotype 3a wild type. As to conditions: Hepatitis C virus, 72 h, read-out: EC50 3A WT.
Assay [5] has as its system genotype 1b (Con1) wild type transient HCV replicon in Huh-7-derived cells. Put plainly: Transient-transfected HCV replicon EC50, genotype 1b wild type. As to conditions: Hepatitis C virus, 72 h, read-out: EC50 1B WT.
The test system of assay [6] is genotype 1b (Con1) stable HCV replicon in Huh-7-derived cells. Put plainly: Stable subgenomic HCV replicon EC50, genotype 1b (Renilla luciferase). As to conditions: Hepatitis C virus, stable replicon genotype 1b, 72 h, read-out: EC50 1B RLUC. An outline of the steps:
(§1)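 Compounds, three-fold diluted, were applied to Huh-7-derived cells harbouring luciferase replicons (genotype 1a H77, 1b Con1, 2a JFH-1, 4a ED43, with strain-specific adaptive mutations). Seventy-two hours later, intracellular replication was gauged by Renilla luciferase activity and EC50 derived by regression.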

Assay [7] concerns genotype 1a NS3/4a protease inhibitor resistant variant R155K transient HCV replicon in Huh-7-derived cells. Put plainly: Transient-transfected HCV replicon EC50, genotype 1a R155K. Particulars: Hepatitis C virus, 72 h, read-out: EC50 1A R155K, transient-transfected replicon genotype 1a R155K resistant variant, 72 h.
Assay [8] relates to genotype 1a (H77) stable HCV replicon in Huh-7-derived cells. Briefly: Stable subgenomic HCV replicon EC50, genotype 1a (Renilla luciferase). Particulars: Hepatitis C virus, stable replicon genotype 1a, 72 h, read-out: EC50 1A RLUC. In outline:
as §1

Assay [9] relates to genotype 2a (JFH-1) stable HCV replicon in Huh-7-derived cells. Briefly: Stable subgenomic HCV replicon EC50, genotype 2a (Renilla luciferase). Particulars: Hepatitis C virus, stable replicon genotype 2a, 72 h, read-out: EC50 2A RLUC. In outline:
as §1

In assay [10] the test system is genotype 4a (ED43) stable HCV replicon in Huh-7-derived cells. Briefly: Stable subgenomic HCV replicon EC50, genotype 4a (Renilla luciferase). As to conditions: Hepatitis C virus, 72 h, read-out: EC50 4A RLUC. An outline of the steps: as §1
[11] abbreviates: transient-transfected replicon genotype 1a wild type.
[12] abbreviates: transient-transfected replicon genotype 3a wild type.
[13] abbreviates: transient-transfected replicon genotype 1b wild type.

Where two headings read alike, the source gives them in different places.

The EC50 is the concentration needed to bring the measured effect to its halfway point. On to `CC[C@@H]1[C@@H]2CN(C(=O)[C@H](C(C)(C)C)NC(=O)O[C@]3(C)CCC[C@H]3CCCCCc3nc4ccc(OC)cc4nc3O2)[C@@H]1C(=O)N[C@]1(C(=O)NS(=O)(=O)C2(C)CC2)C[C@H]1CC(F)F` [Example 41, (3aR,7S,10S,11S,12R,24aR)-7-tert-butyl-N-[(1R,2S)-2-(2,2-difluoroethyl)-1-{[(1-methylcyclopropyl)sulfonyl]carbamoyl}cyclopropyl]-11-ethyl-16-methoxy-3a-methyl-5,8-dioxo-1,2,3,3a,5,6,7,8,11,12,20,21,22,23,24,24a-hexadecahydro-10H-9,12-methanocyclopenta[18,19][1,10,3,6]dioxadiazacyclononadecino[11,12-b]quinoxaline-10-carboxamide], for which the EC50 in assay [1] came out at 715 nM; in [2], 2610 nM; in assay [3] (setting [11]), 164 nM; in [4] (setting [12]) it was 539 nM; in assay [5] (setting [13]) it was 154 nM; in assay [6], 142 nM. Moreover, the EC50 in [7] worked out at 505 nM; in [8], 135 nM; in assay [9], 106 nM; in [10] it was 135 nM.

For `C=C[C@@H]1C[C@]1(NC(=O)[C@@H]1[C@H](C)[C@@H]2CN1C(=O)[C@H](C(C)(C)C)NC(=O)O[C@@H]1C[C@H]1CCCCCc1nc3ccc(OC)cc3nc1O2)C(=O)NS(=O)(=O)C1CC1` [Example 48, (1aR,5S,8S,9S,10R,22aR)-5-tert-butyl-N-{(1R,2S)-1-[(cyclopropylsulfonyl)carbamoyl]-2-ethenylcyclopropyl}-14-methoxy-9-methyl-3,6-dioxo-1,1a,3,4,5,6,9,10,18,19,20,21,22,22a-tetradecahydro-8H-7,10-methanocyclopropa[18,19][1,10,3,6]dioxadiazacyclononadecino[11,12-b]quinoxaline-8-carboxamide], the EC50 in assay [1] was found to be 6.5 nM; in assay [2] it was 73 nM; in assay [3], 1.7 nM; in assay [4], 13 nM; in [5], 1.1 nM; in assay [6], 1.8 nM. Further, the EC50 in [7] was found to be 4 nM; in assay [8], 2 nM; in assay [9], 9.7 nM; in assay [10] it was 2.2 nM.

For the compound `COc1ccc2nc3c(nc2c1)O[C@H]1CN(C(=O)[C@H](C(C)(C)C)NC(=O)O[C@@H]2C[C@@H]4C[C@@H]4[C@H]2CCCCC3)[C@H](C(=O)N[C@]2(C(=O)NS(=O)(=O)C3(C)CC3)C[C@H]2C(F)F)[C@@H]1C` [Example 49, (1aS,2aR,6S,9S,10S,11R,23aR,23bS)-6-tert-butyl-N-[(1R,2R)-2-(difluoromethyl)-1-{[(1-methylcyclopropyl)sulfonyl]carbamoyl}cyclopropyl]-15-methoxy-10-methyl-4,7-dioxo-1a,2,2a,4,5,6,7,10,11,19,20,21,22,23,23a,23b-hexadecahydro-1H,9H-8,11-methanocyclopropa[4′,5′]cyclopenta[1′,2′:18,19][1,10,3,6]dioxadiazacyclononadecino[11,12-b]quinoxaline-9-carboxamide], the EC50 in assay [1] was found to be 4.2 nM; in assay [2], 20 nM; in [3], 3.5 nM; in assay [4] it was 6.3 nM; in assay [5] it was 2.8 nM; in assay [6] it was 4.1 nM. Further, the EC50 came out at 3.8 nM in [7], 3.7 nM in [8], 5.2 nM in assay [9] and 3.5 nM in assay [10].

For the compound `COc1ccc2nc3c(nc2c1)O[C@H]1CN(C(=O)[C@H](C(C)(C)C)NC(=O)O[C@@H]2C[C@H]2CCCCC3)[C@H](C(=O)N[C@]2(C(=O)NS(=O)(=O)C3(C)CC3)C[C@H]2C(F)F)[C@@H]1CC#N` [Example 50, (1aR,5S,8S,9S,10R,22aR)-5-tert-butyl-9-(cyanomethyl)-N-[(1R,2R)-2-(difluoromethyl)-1-{[(1-methylcyclopropyl)sulfonyl]carbamoyl}cyclopropyl]-14-methoxy-3,6-dioxo-1,1a,3,4,5,6,9,10,18,19,20,21,22,22a-tetradecahydro-8H-7,10-methanocyclopropa[18,19][1,10,3,6]dioxadiazacyclononadecino[11,12-b]quinoxaline-8-carboxamide], the EC50 amounted to 4440 nM in assay [1]; 19700 nM in assay [2]; 4440 nM in assay [3] (setting [11]); 26800 nM in [4] (setting [12]); 4440 nM in assay [5] (setting [13]); 4440 nM in assay [6]. The EC50 came out at 3830 nM in assay [7], 4440 nM in [8], 379 nM in assay [9] and 4440 nM in [10].

Turning to `CC[C@@H]1[C@@H]2CN(C(=O)[C@H](C(C)(C)C)NC(=O)O[C@]3(C)CCC[C@H]3CCCCCc3nc4ccc(OC)cc4nc3O2)[C@@H]1C(=O)N[C@]1(C(=O)NS(=O)(=O)C2CC2)C[C@H]1CC` [Example 51], the concentration for a half-maximal effect (EC50) was determined as 318 nM in assay [1] (GETYPE1B); 1220 nM in assay [2]; 28 nM in [3] (GETYPE1A, transient-transfected replicon genotype 1a wild type); 265 nM in assay [4] (setting [12]); 24 nM in assay [5] (GETYPE1B, transient-transfected replicon genotype 1b wild type); 39 nM in [6]. Moreover, the EC50 in assay [7] (GETYPE1A) is 92 nM; in [8] it was 40 nM; in assay [9], 103 nM; in assay [10], 30 nM.

Take `CC[C@@H]1[C@@H]2CN(C(=O)[C@H](C(C)(C)C)NC(=O)O[C@]3(C)CCC[C@H]3CCCCCc3nc4ccc(OC)cc4nc3O2)[C@@H]1C(=O)N[C@]1(C(=O)NS(=O)(=O)C2(C)CC2)C[C@H]1CCF` [Example 52, (3aR,7S,10S,11S,12R,24aR)-7-tert-butyl-11-ethyl-N-[(1R,2S)-2-(2-fluoroethyl)-1-{[(1-methylcyclopropyl)sulfonyl]carbamoyl}cyclopropyl]-16-methoxy-3a-methyl-5,8-dioxo-1,2,3,3a,5,6,7,8,11,12,20,21,22,23,24,24a-hexadecahydro-10H-9,12-methanocyclopenta[18,19][1,10,3,6]dioxadiazacyclononadecino[11,12-b]quinoxaline-10-carboxamide]: the EC50 in assay [1] was found to be 887 nM; in [2] it was 2310 nM; in assay [3] (setting [11]) it was 150 nM; in assay [4] (setting [12]), 538 nM; in assay [5] (setting [13]) it was 161 nM; in assay [6] it was 245 nM. In addition, the half-maximal effective concentration (EC50) was determined as 516 nM in assay [7], 195 nM in [8], 380 nM in assay [9] and 161 nM in assay [10].

Turning to `CC[C@@H]1[C@@H]2CN(C(=O)[C@H](C(C)(C)C)NC(=O)O[C@@H]3C[C@H]3CCCCC(F)(F)c3nc4ccccc4nc3O2)[C@@H]1C(=O)N[C@]1(C(=O)NS(=O)(=O)C2CC2)C[C@H]1C(F)F` [Example 53, (1aR,5S,8S,9S,10R,22aR)-5-tert-butyl-N-[(1R,2R)-1-[(cyclopropylsulfonyl)carbamoyl]-2-(difluoromethyl)cyclopropyl]-9-ethyl-18,18-difluoro-3,6-dioxo-1,1a,3,4,5,6,9,10,18,19,20,21,22,22a-tetradecahydro-8H-7,10-methanocyclopropa[18,19][1,10,3,6]dioxadiazacyclononadecino[11,12-b]quinoxaline-8-carboxamide], the EC50 in assay [1] came to 11 nM; in assay [2], 18 nM; in assay [3] (setting [11]), 5.3 nM; in [4] (setting [12]) it was 15 nM; in assay [5] (setting [13]), 2 nM; in [6] it was 7.7 nM. Moreover, the EC50 in assay [7] was 5.6 nM; in assay [8], 51 nM; in [9], 13 nM; in assay [10] it was 2.8 nM.
